For series [1], the system named is CHO-K1 cells. Briefly: MTT assay on CHO-K1 cells. The class given is cell-based, Chinese hamster. The following applies: Cricetulus griseus, cell viability, 24 h exposure, mean ± SEM, n = 3. The method, then: Standard MTT (3-[4,5-dimethylthiazol-2-yl]-2,5-diphenyltetrazolium bromide) assay (Sigma Aldrich, Prague, Czech Republic) was used according to the manufacturer´s protocol on the CHO-K1 (Chinese hamster ovary, ECACC, Salisbury, UK) in order to compare the effect of different compounds within the series. The cells were cultured according to ECACC recommended conditions and seeded in a density of 8000 per well as described previously. […] Cells were exposed to a tested compound for 24 h. Then the medium was replaced by a medium containing 10 μM of MTT and cells were allowed to produce formazan for another approximately 3 h under surveillance. Thereafter, medium with MTT was sucked out and crystals of formazan were dissolved in DMSO (100 µL). Cell viability was assessed spectrophotometrically by the amount of formazan produced. Absorbance was measured at 570 nm with 650 nm reference wavelength on Synergy HT (BioTek, Winooski, VT, USA). IC50 was then calculated from the control-subtracted triplicates using non-linear regression (four parameters) of GraphPad Prism 9 software. Final IC50 and SEM values were obtained as a mean of three independent measurements.

The target of series [2] is T1, dopamine receptor (D2) wild type (D2Rs) (Homo sapiens, UniProt P14416).
T1 construct: host or cells: CHO cells, transient PEI transfection; membranes prepared 48 h after transfection
T1 sequence (P14416 whole entry): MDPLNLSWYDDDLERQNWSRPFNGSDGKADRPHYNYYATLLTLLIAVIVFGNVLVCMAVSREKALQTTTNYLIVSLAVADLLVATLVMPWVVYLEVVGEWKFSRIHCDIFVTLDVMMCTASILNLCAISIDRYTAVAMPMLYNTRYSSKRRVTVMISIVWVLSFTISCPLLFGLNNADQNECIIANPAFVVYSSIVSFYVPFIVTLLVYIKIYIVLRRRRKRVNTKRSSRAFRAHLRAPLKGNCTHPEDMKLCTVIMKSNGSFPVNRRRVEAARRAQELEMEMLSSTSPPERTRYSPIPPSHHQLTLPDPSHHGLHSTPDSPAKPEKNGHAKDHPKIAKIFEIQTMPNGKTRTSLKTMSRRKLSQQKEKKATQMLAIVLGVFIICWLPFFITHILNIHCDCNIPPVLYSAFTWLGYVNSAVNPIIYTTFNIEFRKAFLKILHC
Nature of the series: D2R competition binding with [3H]-spiperone on membranes of transfected CHO cells. The note with it: for Ki: D2Rs, competition with 180 pM [3H]-spiperone, mean ± SEM, n = 3; for IC50: Table S1, D2Rs, mean ± S.E.M. of 3 independent experiments in triplicate, read-out: IC50 in µM ± SEM. As for the experimental part:
Chinese hamster ovary cells (CHO cells) were used for the binding experiments. About 24 h before transfection, CHO cells were plated on a 10 cm Petri dish at a density of 1.5 × 10^6 cells and cultivated in 10 mL DMEM/Ham’s F12 supplemented with 10% heat-inactivated fetal bovine serum (FBS).
For transfection, the desired amount of linear polyethyleneimine (PEI) 25_K (Polysciences, Eppelheim, Germany) and DNA (dopamine receptor (D2) wild type, cDNA resource centre, Bloomsberg, PA, USA) were diluted separately in phosphate buffer saline (PBS). After 20 min, DNA was added to PEI solution, mixed and left for an additional 30 min. Final concentration of reactants was 6 µg plasmid DNA and 18 µg PEI per ml. PEI/DNA complex was added (1 mL/dish) and the plates were incubated for another 24 h. Then, the medium was replaced with fresh DMEM/Ham’s F12 with 10% FBS and incubated for an additional 24 h. Cells were maintained at 37 °C in a 5% CO2-humidified atmosphere.
About 48 h after transfection, cells were washed with PBS, mechanically detached from the dish with a plastic scraper in the ice-cold PBS, and centrifuged for 3 min at 250× g. Pellet was suspended in the ice-cold homogenization medium (100 mM NaCl, 20 mM Na-HEPES, 10 mM EDTA, pH 7.4) and homogenized on ice by two 30-s strokes using Polytron homogenizer (Ultra-Turrax; Janke & Kunkel GmbH & Co. KG, IKA-Labortechnik, Staufen, Germany) with a 30-s pause between strokes. Cell homogenates were centrifuged for 5 min at 1000× g. The supernatant was collected and centrifuged for 30 min at 30,000× g. Pellets were suspended in incubation medium (100 mM NaCl, 20 mM Na-HEPES, 10 mM MgCl2, pH 7.4), left for 30 min at 4 °C and centrifuged again for 30 min at 30,000× g. The membrane pellets were kept at −80 °C until use.
All radioligand binding experiments were optimized and carried out as described by El-Fakahany and Jakubik. […] Saturation experiments were performed in 800 μL volume containing: 400 μL of the membrane suspension and 400 μL of the radioligand in six increasing concentrations (ranging from 31 to 1000 pM).
The examined compounds were diluted in incubation buffer and tested in six concentrations (ranging from 0.1 nM–1 mM). The reactions were performed in 400 µL volume containing: 100 µL of the radioligand, 100 µL of tested substances dilution, and 200 µL of the membranes.
Nonspecific binding was determined in the presence of 10 μM unlabeled sulpiride. Membrane suspensions from both saturation and binding experiments (approximately 10 μg of membrane proteins per sample) were incubated in 96-well plates for 1 h at 25 °C in the incubation medium (100 mM NaCl, 20 mM Na-HEPES,10 mM MgCl2, pH = 7.4) in a shaking incubator (25 °C; PST-60HL, Biosan, Riga, Latvia).
The binding reactions were terminated by filtration of the membranes through APFC filter plate (Millipore, Prague, Czech Republic) pre-soaked with 0.5% PEI and washed with ice-cold distilled water using a Brandel cell harvester (Brandel, Gaithersburg, MD, USA). Then, filters with labelled membranes were dried. After 24 h, scintillation cocktail (Rotiszint eco plus, Carl Roth) was added to each sample and radioactivity was quantified by liquid scintillation spectrometry using Wallac Microbeta scintillation counter (Wallac, Turku, Finland). Competition binding experiments were performed per triplicate and all experiments were performed three times. Protein concentration was determined by the Lowry method in the Peterson modification.

Series [3] in a line: PAMPA assay (Polar Brain Lipid membrane). The following applies: for CNS (+/−): BBB permeability class predicted from PAMPA Pe; for Papp: PAMPA, pH 7.4.
Protocol: In this study, it has been used as a non-cell-based in vitro assay carried out in a coated 96-well membrane filter. The filter membrane of the donor plate was coated with PBL (Polar Brain Lipid, Avanti, AL, USA) in dodecane (4 µL of 20 mg/mL PBL in dodecane) and the acceptor well was filled with 300 µL of PBS pH 7.4 buffer (VA tested compounds were dissolved first in the DMSO/phosphate-buffered saline mixture (maximum 0.5% v/v of DMSO) and subsequently diluted with phosphate-buffered saline (pH 7.4) to final concentrations of 40–100 μM in the donor wells). […] About 300 µL of the donor solution was added to the donor wells (VD) and the donor filter plate was carefully put on the acceptor plate so that coated membrane was “in touch” with both donor solution and acceptor buffer. Test compound diffused from the donor well through the lipid membrane (Area = 0.28 cm^2) to the acceptor well. The concentration of the drug in both donor and the acceptor wells were assessed after 3, 4, 5, and 6 h of incubation in quadruplicate using the UV plate reader Synergy HT (Biotek, Winooski, VT, USA) at the maximum absorption wavelength of each compound. Besides that, solution of theoretical compound concentration, simulating the equilibrium state established if the membrane were ideally permeable was prepared and assessed as well. Concentration of the compounds in the donor and acceptor well and equilibrium concentration were calculated from the standard curve and expressed as the permeability (Pe) according to the equation:(4) Pe=C×ln(1−[drug] acceptor/[drug] equilibrium) where C=(VD×VA)/(VD×VA) Area×Time
For series [4], the target named is D2Rs. The note with it: Figure 1; cited from earlier work.
In series [5] the target is D3Rs. The note with it: Figure 1; cited from earlier work.

We go through 18 compounds from paper PMC8464836 (Biomolecules, 2021).

Turning to `O=C1CCc2ccccc2N1CCCN1CCCC1` [5a, 1-(3-(Pyrrolidin-1-yl)propyl)-3,4-dihydroquinolin-2(1H)-one], in series [1], the IC50 (in general, the point on the concentration scale where inhibition reaches its midpoint) stood at 2 ± 0.8 mM. In series [2], affinity was put at a Ki of 24 ± 5.8 µM and the IC50 is 98 ± 23 µM. Also, in series [3], the “CNS (+/−)” value was “CNS + (CNS + (high BBB permeability predicted), Pe (10^−6 cm∙s^−1) > 4.0)”; the Papp (commonly the rate of passage across a membrane or cell layer, normalised by area and donor concentration) stood at 7.3 ± 0.8 ×10⁻⁶ cm/s.
On to `O=C1CCc2ccccc2N1CCCN1CCCCC1` [5b, 1-(3-(Piperidin-1-yl)propyl)-3,4-dihydroquinolin-2(1H)-one], for which the IC50 in series [1] came to 1.5 ± 0.3 mM. In series [2], affinity was put at a Ki of 9.7 ± 1.6 µM and the IC50 is 39 ± 6.4 µM. Also, in series [3], the “CNS (+/−)” value is on record as “CNS + (CNS + (high BBB permeability predicted), Pe (10^−6 cm∙s^−1) > 4.0)” and the Papp came out at 13 ± 0.1 ×10⁻⁶ cm/s.
For `CN1CCN(CCCN2C(=O)CCc3ccccc32)CC1` [5c, 1-(3-(4-Methylpiperazin-1-yl)propyl)-3,4-dihydroquinolin-2(1H)-one], the IC50 in series [1] came to 2 ± 1 mM. Further, in series [2], the Ki (as a rule, a dissociation constant, usually derived from enzyme kinetics or from competition with a known ligand) was 12 ± 3.2 µM and the IC50 is 49 ± 13 µM. For the same compound, in series [3], the “CNS (+/−)” value was “CNS + (CNS + (high BBB permeability predicted), Pe (10^−6 cm∙s^−1) > 4.0)” and the Papp was found to be 7 ± 0.4 ×10⁻⁶ cm/s.
Consider `O=C1CCc2ccccc2N1CCCN1CCOCC1` [5d, 1-(3-Morpholinopropyl)-3,4-dihydroquinolin-2(1H)-one], for which, in series [1], the IC50 is 1.1 ± 0.3 mM. Further, in series [2], the affinity, expressed as Ki, was 20 ± 1.6 µM and the IC50 turned out to be 80 ± 6.3 µM. Besides, in series [3], the “CNS (+/−)” value was “CNS + (CNS + (high BBB permeability predicted), Pe (10^−6 cm∙s^−1) > 4.0)” and the Papp came out at 12 ± 2 ×10⁻⁶ cm/s.
Turning to `O=C1CCc2ccccc2N1CCCN1CCSCC1` [5e, 1-(3-Thiomorpholinopropyl)-3,4-dihydroquinolin-2(1H)-one], in series [1], the IC50 came to 0.5 ± 0.1 mM. Moreover, in series [2], the affinity corresponds to a Ki of 7.6 ± 1.9 µM and the IC50 came out at 30 ± 7.7 µM. Also, in series [3], the “CNS (+/−)” value is listed as “CNS + (CNS + (high BBB permeability predicted), Pe (10^−6 cm∙s^−1) > 4.0)” and the apparent permeability coefficient (Papp) was found to be 24 ± 2.1 ×10⁻⁶ cm/s.
With `CCN(CC)CCCN1C(=O)CCc2ccccc21` [5f, 1-(3-(Diethylamino)propyl)-3,4-dihydroquinolin-2(1H)-one], the IC50 in series [1] came out at 0.9 ± 0.2 mM. In addition, in series [2], the affinity corresponds to a Ki of 37 ± 8.6 µM and the IC50 was found to be 150 ± 34 µM. For the same compound, in series [3], the “CNS (+/−)” value was “CNS + (CNS + (high BBB permeability predicted), Pe (10^−6 cm∙s^−1) > 4.0)” and the Papp came out at 9.4 ± 0.4 ×10⁻⁶ cm/s.
`COCCN(C)CCCN1C(=O)CCc2ccccc21` [5g, 1-(3-((2-Methoxyethyl)(methyl)amino)propyl)-3,4-dihydroquinolin-2(1H)-one]: the IC50 in series [1] came out at 1.5 ± 0.5 mM. Further, in series [2], the Ki turned out to be 26 ± 6.1 µM and the IC50 stood at 106 ± 24 µM. Moreover, in series [3], the “CNS (+/−)” value is “CNS + (CNS + (high BBB permeability predicted), Pe (10^−6 cm∙s^−1) > 4.0)” and the Papp is 10 ± 1.6 ×10⁻⁶ cm/s.
As to `O=C1CCc2ccccc2N1CCCCN1CCCC1` [6a, 1-(4-(Pyrrolidin-1-yl)butyl)-3,4-dihydroquinolin-2(1H)-one], in series [1], the IC50 came out at 1.1 ± 0.2 mM. For the same compound, in series [2], affinity was put at a Ki of 23 ± 3.6 µM and the IC50 is 93 ± 14 µM. Also, in series [3], the “CNS (+/−)” value is reported as “CNS + (CNS + (high BBB permeability predicted), Pe (10^−6 cm∙s^−1) > 4.0)” and the Papp came to 7.7 ± 1.8 ×10⁻⁶ cm/s.
Regarding `O=C1CCc2ccccc2N1CCCCN1CCCCC1` [6b, 1-(4-(Piperidin-1-yl)butyl)-3,4-dihydroquinolin-2(1H)-one], the IC50 in series [1] was 0.8 ± 0.2 mM. In series [2], affinity was put at a Ki of 14 ± 2.5 µM and the IC50 is 57 ± 10 µM. Moreover, in series [3], the “CNS (+/−)” value is “CNS + (CNS + (high BBB permeability predicted), Pe (10^−6 cm∙s^−1) > 4.0)” and the Papp was found to be 10 ± 1.4 ×10⁻⁶ cm/s.
As for `CN1CCN(CCCCN2C(=O)CCc3ccccc32)CC1` [6c, 1-(4-(4-Methylpiperazin-1-yl)butyl)-3,4-dihydroquinolin-2(1H)-one], in series [1], the IC50 was determined as 1.2 ± 0.2 mM. In series [2], the Ki stood at 21 ± 0.6 µM and the IC50 amounted to 82 ± 2.3 µM. Further, in series [3], the “CNS (+/−)” value is recorded as “CNS + (CNS + (high BBB permeability predicted), Pe (10^−6 cm∙s^−1) > 4.0)” and the Papp amounted to 7.1 ± 1.2 ×10⁻⁶ cm/s.
For the compound `O=C1CCc2ccccc2N1CCCCN1CCOCC1` [6d, 1-(4-Morpholinobutyl)-3,4-dihydroquinolin-2(1H)-one], the IC50 in series [1] was determined as 1.3 ± 0.2 mM. For the same compound, in series [2], the Ki is 41 ± 14 µM and the IC50 was found to be 166 ± 56 µM. Besides, in series [3], the “CNS (+/−)” value is given as “CNS + (CNS + (high BBB permeability predicted), Pe (10^−6 cm∙s^−1) > 4.0)” and the Papp was 17 ± 2.1 ×10⁻⁶ cm/s.
Take `O=C1CCc2ccccc2N1CCCCN1CCSCC1` [6e, 1-(4-Thiomorpholinobutyl)-3,4-dihydroquinolin-2(1H)-one]: in series [1], the IC50 was 0.8 ± 0.1 mM. In addition, in series [2], affinity was put at a Ki of 9.7 ± 2.3 µM and the IC50 amounted to 40 ± 8.2 µM. For the same compound, in series [3], the “CNS (+/−)” value was “CNS + (CNS + (high BBB permeability predicted), Pe (10^−6 cm∙s^−1) > 4.0)” and the Papp stood at 23 ± 3.3 ×10⁻⁶ cm/s.
On to `CCN(CC)CCCCN1C(=O)CCc2ccccc21` [6f, 1-(4-(Diethylamino)butyl)-3,4-dihydroquinolin-2(1H)-one], for which the IC50 in series [1] came out at 1.8 ± 0.3 mM. In series [2], the affinity corresponds to a Ki of 27 ± 4.7 µM and the IC50 is 103 ± 19 µM. Moreover, in series [3], the “CNS (+/−)” value is recorded as “CNS + (CNS + (high BBB permeability predicted), Pe (10^−6 cm∙s^−1) > 4.0)” and the Papp is 7.4 ± 0.9 ×10⁻⁶ cm/s.
Regarding `COCCN(C)CCCCN1C(=O)CCc2ccccc21` [6g, 1-(4-((2-Methoxyethyl)(methyl)amino)butyl)-3,4-dihydroquinolin-2(1H)-one], the IC50 in series [1] was found to be 2.1 ± 0.8 mM. In series [2], the affinity, expressed as Ki, was 45 ± 11 µM and the concentration for half-maximal inhibition (IC50) worked out at 188 ± 38 µM. In addition, in series [3], the “CNS (+/−)” value was “CNS + (CNS + (high BBB permeability predicted), Pe (10^−6 cm∙s^−1) > 4.0)” and the Papp was 9.5 ± 1.1 ×10⁻⁶ cm/s.
Consider `NS(=O)(=O)c1cc2c(cc1Cl)N=CNS2(=O)=O` [Chlorothiazide, reference compound], for which the Papp in series [3] amounted to 1.2 ± 0.5 ×10⁻⁶ cm/s.
`CNC(=C[N+](=O)[O-])NCCSCc1ccc(CN(C)C)o1` [Ranitidine, reference compound]: in series [3], the “CNS (+/−)” value was “CNS − (CNS − (low BBB permeability predicted), Pe (10^−6 cm∙s^−1) < 2.0)” and the Papp stood at 0.4 ± 0.3 ×10⁻⁶ cm/s.
`COc1ccccc1N1CCN(CCCN2C(=O)CCc3ccccc32)CC1` [USC-D301]: the “pKi for D2Rs” value in series [4] was 7.8. In series [5], the “pKi for D3Rs” value is on record as 6.4.
In the case of `CCc1cc(Cl)c(OC)c(C(=O)NC[C@@H]2CCCN2CC)c1O` [eticlopride], the Ki in series [4] is 0.0001 µM.
